pKi: −log10 of the molar value.
Columns and labels:
[1] = target: T1, human GABAA α5β3*γ2S receptor (Homo sapiens, UniProt P18507+P31644); assay: In vitro inhibition of 3H-flumazenil binding, HEK cells expressing human GABAA α5β3*γ2S receptor
T1 construct: expressed in transfected cells
Description: When the cultures reach confluency, the DMEM is removed and the cells are washed (10 ml for T175 flasks; 50 ml for roller bottles) once in Dulbecco's Phosphate Buffered Saline (DPBS). Following addition of DPBS to the cultures (10 ml for T175 flasks; 100 ml for roller bottles) for approximately 5 min cells are easily detached from the surface by shaking or tapping the flask gently. The cell suspension is transferred to Falcon tubes and centrifuged at 23,500×g for 10 min at 2° C. The pellet is washed once in 15 ml Tris-citrate buffer (50 mM, pH 7.1) using an Ultra-Turrax homogenizer and centrifuged at 2° C. for 10 min at 27,000×g. The washed pellet is re-suspended in 15 ml Tris-citrate buffer and frozen at −80° C. until the day of the binding experiment.
On the day of the experiment the cell membrane preparation is thawed and centrifuged at 2° C. for 10 min at 27,000×g.
Non-specific binding is determined using clonazepam (1 μM, final concentration). […]
The amount of radioactivity on the filters is determined by conventional liquid scintillation counting using a […]
where B is the binding in percentage of total specific binding; C is the concentration of test compound; and n is the Hill coefficient. […] The IC50 value is calculated from the concentration response curves by the non-linear regression method using the curve-fitting program GraphPad Prism.

T1 sequence (P31644 32-462): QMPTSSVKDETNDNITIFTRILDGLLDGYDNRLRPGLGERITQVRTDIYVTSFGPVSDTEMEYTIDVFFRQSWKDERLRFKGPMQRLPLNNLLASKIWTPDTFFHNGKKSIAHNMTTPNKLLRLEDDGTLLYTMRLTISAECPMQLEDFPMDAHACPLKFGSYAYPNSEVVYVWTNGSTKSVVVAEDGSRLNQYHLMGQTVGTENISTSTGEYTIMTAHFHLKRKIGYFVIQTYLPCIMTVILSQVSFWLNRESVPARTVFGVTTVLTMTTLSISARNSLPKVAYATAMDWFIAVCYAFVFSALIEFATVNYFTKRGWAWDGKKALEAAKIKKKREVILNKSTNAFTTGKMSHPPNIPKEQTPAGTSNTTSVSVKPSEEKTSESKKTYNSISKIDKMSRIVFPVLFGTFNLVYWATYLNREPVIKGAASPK
T1 sequence (P18507 40-467 isoform P18507-1 limits assumed): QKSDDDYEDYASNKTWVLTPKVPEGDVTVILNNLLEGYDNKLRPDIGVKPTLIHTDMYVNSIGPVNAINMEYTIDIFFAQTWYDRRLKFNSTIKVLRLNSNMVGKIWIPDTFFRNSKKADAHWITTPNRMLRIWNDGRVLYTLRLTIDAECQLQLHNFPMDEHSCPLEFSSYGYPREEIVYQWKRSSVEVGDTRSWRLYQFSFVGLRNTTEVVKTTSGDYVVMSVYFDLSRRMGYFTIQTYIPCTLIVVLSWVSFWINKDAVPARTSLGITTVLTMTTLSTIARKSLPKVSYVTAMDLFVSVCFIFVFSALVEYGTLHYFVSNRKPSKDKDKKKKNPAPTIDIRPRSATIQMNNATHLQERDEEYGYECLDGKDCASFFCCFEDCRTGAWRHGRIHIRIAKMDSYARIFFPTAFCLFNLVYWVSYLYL

## Cn1nnc(-c2ccccc2F)c1COc1ccc(-n2cnc(C#N)c2)cn1 [Compound 7, 1-{6-[5-(2-Fluoro-phenyl)-3-methyl-3H-[1,2,3]triazol-4-ylmethoxy]-pyridin-3-yl}-1H-imidazole-4-carbonitrile]
[1]
  pKi: 7.70
other
  melting point: 178 to 181.5 °C
